Measurements taken from US11713338B2, “Cyclic peptides multimers targeting α-4-β-7 integrin” (priority 2016, dated 2023).

molecular target: T1, integrin α4β7 (RPMI8866 human cells adhering to MAdCAM-1) (Homo sapiens, UniProt P13612+P26010); test: Integrin α4β7-MAdCAM cell adhesion assay (RPMI8866 cells); assay type: cell-based; conditions: RPMI8866 cells adhering to MAdCAM; read-out: RPMI8866 Adhesion α4β7/MAdCAM IC50
T1 construct: RMP18866 cells, which express integrin α4β7; host or cells: RPMI8866
T1 sequence (P13612 34-1032): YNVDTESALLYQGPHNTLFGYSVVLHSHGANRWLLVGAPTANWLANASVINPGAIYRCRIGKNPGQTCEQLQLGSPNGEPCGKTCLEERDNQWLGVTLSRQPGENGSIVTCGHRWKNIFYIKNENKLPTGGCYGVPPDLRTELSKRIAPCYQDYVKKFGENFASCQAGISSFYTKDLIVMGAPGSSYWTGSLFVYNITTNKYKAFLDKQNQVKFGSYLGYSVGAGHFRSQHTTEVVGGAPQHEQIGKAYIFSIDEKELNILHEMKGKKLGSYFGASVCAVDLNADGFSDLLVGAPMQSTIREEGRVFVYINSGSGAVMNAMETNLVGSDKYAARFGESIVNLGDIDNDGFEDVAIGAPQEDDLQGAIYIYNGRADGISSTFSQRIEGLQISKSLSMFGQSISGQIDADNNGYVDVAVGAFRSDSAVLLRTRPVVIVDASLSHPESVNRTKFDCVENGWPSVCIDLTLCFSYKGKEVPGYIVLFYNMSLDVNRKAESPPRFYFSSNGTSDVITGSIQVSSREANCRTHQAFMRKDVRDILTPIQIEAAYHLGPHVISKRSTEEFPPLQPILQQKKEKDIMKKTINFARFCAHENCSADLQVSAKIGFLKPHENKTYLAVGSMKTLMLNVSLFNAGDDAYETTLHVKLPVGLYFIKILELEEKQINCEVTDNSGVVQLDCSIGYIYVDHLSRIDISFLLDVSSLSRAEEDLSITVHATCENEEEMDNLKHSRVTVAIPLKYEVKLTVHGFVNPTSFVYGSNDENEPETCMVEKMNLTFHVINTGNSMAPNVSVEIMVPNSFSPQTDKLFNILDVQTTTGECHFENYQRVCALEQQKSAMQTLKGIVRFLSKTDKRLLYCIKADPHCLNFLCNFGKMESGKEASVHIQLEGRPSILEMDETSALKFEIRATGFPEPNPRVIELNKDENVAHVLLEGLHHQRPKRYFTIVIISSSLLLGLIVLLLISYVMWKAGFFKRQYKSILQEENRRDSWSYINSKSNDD
T1 sequence (P26010 20-798): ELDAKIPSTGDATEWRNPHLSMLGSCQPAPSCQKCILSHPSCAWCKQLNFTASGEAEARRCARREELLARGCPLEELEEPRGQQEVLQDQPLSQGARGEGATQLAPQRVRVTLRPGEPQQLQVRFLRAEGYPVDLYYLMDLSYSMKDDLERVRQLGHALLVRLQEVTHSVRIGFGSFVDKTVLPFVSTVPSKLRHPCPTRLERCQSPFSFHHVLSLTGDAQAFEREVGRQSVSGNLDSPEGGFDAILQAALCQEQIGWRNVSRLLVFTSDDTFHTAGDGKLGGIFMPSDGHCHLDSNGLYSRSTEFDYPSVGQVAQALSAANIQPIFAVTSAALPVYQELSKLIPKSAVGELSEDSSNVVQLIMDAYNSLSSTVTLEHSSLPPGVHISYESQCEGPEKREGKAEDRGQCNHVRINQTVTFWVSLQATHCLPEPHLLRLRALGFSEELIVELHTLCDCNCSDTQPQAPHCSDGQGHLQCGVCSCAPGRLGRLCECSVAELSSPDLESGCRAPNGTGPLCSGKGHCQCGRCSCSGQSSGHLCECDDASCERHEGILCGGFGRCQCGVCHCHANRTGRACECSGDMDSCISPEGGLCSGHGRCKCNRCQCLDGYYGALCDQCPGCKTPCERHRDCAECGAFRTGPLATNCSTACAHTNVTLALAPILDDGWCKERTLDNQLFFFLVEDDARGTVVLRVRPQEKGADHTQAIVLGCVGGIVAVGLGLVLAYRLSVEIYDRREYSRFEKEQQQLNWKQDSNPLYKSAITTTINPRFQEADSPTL
How it was run: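 RPMI8866 cells were loaded with […] calcein in PBS for 30 min at 37° C. After plate washes with PBS, fluorescence of adherent cells was read, and no-cell control wells were subtracted from each test well to build the dose response.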

SMILES | IC50
CC(C)C[C@@H]1NC(=O)c2ccc(-c3ccc(N4CCN(C(=O)COCC(=O)N5CCN(c6ccc(-c7ccc8cc7CNC(=O)[C@@H]7CCCN7[C@H](C(=O)NC(C)(C)C)[C@H](C)NC(=O)[C@H]([C@@H](C)O)NC(=O)[C@H](CC(=O)O)NC(=O)[C@H](CC(C)C)NC8=O)cc6)CC5)CC4)cc3)c(c2)CNC(=O)[C@@H]2CCCN2[C@H](C(=O)NC(C)(C)C)[C@H](C)NC(=O)[C@H]([C@@H](C)O)NC(=O)[C@H](CC(=O)O)NC1=O [Compound 390] | 13 nM
CC(C)C[C@@H]1NC(=O)c2ccc(-c3ccc(N4CCN(C(=O)CCC(=O)N5CCN(c6ccc(-c7ccc8cc7CNC(=O)[C@@H]7CCCN7[C@H](C(=O)NC(C)(C)C)[C@H](C)NC(=O)[C@H]([C@@H](C)O)NC(=O)[C@H](CC(=O)O)NC(=O)[C@H](CC(C)C)NC8=O)cc6)CC5)CC4)cc3)c(c2)CNC(=O)[C@@H]2CCCN2[C@H](C(=O)NC(C)(C)C)[C@H](C)NC(=O)[C@H]([C@@H](C)O)NC(=O)[C@H](CC(=O)O)NC1=O [Compound 484] | 14 nM
CC(C)C[C@@H]1NC(=O)C[C@H](CCCCN)N(C)C(=O)[C@H](CCCCNC(=O)CCCCCCCC(=O)NCCCC[C@@H]2NC(=O)[C@@H]3CCCN3[C@H](C(=O)NC(C)(C)C)[C@H](C)NC(=O)[C@H]([C@@H](C)O)NC(=O)[C@H](CC(=O)O)NC(=O)[C@H](CC(C)C)NC(=O)C[C@H](CCCCN)N(C)C2=O)NC(=O)[C@@H]2CCCN2[C@H](C(=O)NC(C)(C)C)[C@H](C)NC(=O)[C@H]([C@@H](C)O)NC(=O)[C@H](CC(=O)O)NC1=O [Compound 533] | 17 nM
CC(C)C[C@@H]1NC(=O)c2ccc(-c3ccc(N4CCN(CCC(=O)N5CCN(c6ccc(-c7ccc8cc7CNC(=O)[C@@H]7CCCN7[C@H](C(=O)NC(C)(C)C)[C@H](C)NC(=O)[C@H]([C@@H](C)O)NC(=O)[C@H](CC(=O)O)NC(=O)[C@H](CC(C)C)NC8=O)cc6)CC5)CC4)cc3)c(c2)CNC(=O)[C@@H]2CCCN2[C@H](C(=O)NC(C)(C)C)[C@H](C)NC(=O)[C@H]([C@@H](C)O)NC(=O)[C@H](CC(=O)O)NC1=O [Compound 482] | 26 nM
CC(C)C[C@@H]1NC(=O)c2ccc(-c3ccc(N4CCN(C(=O)c5cc(-c6ccccc6)c(C(=O)N6CCN(c7ccc(-c8ccc9cc8CNC(=O)[C@@H]8CCCN8[C@H](C(=O)NC(C)(C)C)[C@H](C)NC(=O)[C@H]([C@@H](C)O)NC(=O)[C@H](CC(=O)O)NC(=O)[C@H](CC(C)C)NC9=O)cc7)CC6)cc5-c5ccccc5)CC4)cc3)c(c2)CNC(=O)[C@@H]2CCCN2[C@H](C(=O)NC(C)(C)C)[C@H](C)NC(=O)[C@H]([C@@H](C)O)NC(=O)[C@H](CC(=O)O)NC1=O [Compound 469] | 5 nM
CC(C)C[C@@H]1NC(=O)c2ccc(-c3ccc(N4CCN(C(=O)[C@H](CCCCNC(=O)CCCCCC(=O)NCCCC[C@H](NC(=O)OCc5ccccc5)C(=O)N5CCN(c6ccc(-c7ccc8cc7CNC(=O)[C@@H]7CCCN7[C@H](C(=O)NC(C)(C)C)[C@H](C)NC(=O)[C@H]([C@@H](C)O)NC(=O)[C@H](CC(=O)O)NC(=O)[C@H](CC(C)C)NC8=O)cc6)CC5)NC(=O)OCc5ccccc5)CC4)cc3)c(c2)CNC(=O)[C@@H]2CCCN2[C@H](C(=O)NC(C)(C)C)[C@H](C)NC(=O)[C@H]([C@@H](C)O)NC(=O)[C@H](CC(=O)O)NC1=O [Compound 498] | 36 nM
CC(C)C[C@@H]1NC(=O)c2ccc(-c3ccc(N4CCN(C(=O)C56CC7CC(C5)CC(C(=O)N5CCN(c8ccc(-c9ccc%10cc9CNC(=O)[C@@H]9CCCN9[C@H](C(=O)NC(C)(C)C)[C@H](C)NC(=O)[C@H]([C@@H](C)O)NC(=O)[C@H](CC(=O)O)NC(=O)[C@H](CC(C)C)NC%10=O)cc8)CC5)(C7)C6)CC4)cc3)c(c2)CNC(=O)[C@@H]2CCCN2[C@H](C(=O)NC(C)(C)C)[C@H](C)NC(=O)[C@H]([C@@H](C)O)NC(=O)[C@H](CC(=O)O)NC1=O [Compound 460] | 62 nM
CC(C)C[C@@H]1NC(=O)c2ccc(-c3ccc(N4CCN(Cc5cc(CN6CCN(c7ccc(-c8ccc9cc8CNC(=O)[C@@H]8CCCN8[C@H](C(=O)NC(C)(C)C)[C@H](C)NC(=O)[C@H]([C@@H](C)O)NC(=O)[C@H](CC(=O)O)NC(=O)[C@H](CC(C)C)NC9=O)cc7)CC6)cc(CN6CCN(c7ccc(-c8ccc9cc8CNC(=O)[C@@H]8CCCN8[C@H](C(=O)NC(C)(C)C)[C@H](C)NC(=O)[C@H]([C@@H](C)O)NC(=O)[C@H](CC(=O)O)NC(=O)[C@H](CC(C)C)NC9=O)cc7)CC6)c5)CC4)cc3)c(c2)CNC(=O)[C@@H]2CCCN2[C@H](C(=O)NC(C)(C)C)[C@H](C)NC(=O)[C@H]([C@@H](C)O)NC(=O)[C@H](CC(=O)O)NC1=O [Compound 518] | 18 nM
CC(C)C[C@@H]1NC(=O)c2ccc(-c3ccc(N4CCN(CC(=O)N5CCN(c6ccc(-c7ccc8cc7CNC(=O)[C@@H]7CCCN7[C@H](C(=O)NC(C)(C)C)[C@H](C)NC(=O)[C@H]([C@@H](C)O)NC(=O)[C@H](CC(=O)O)NC(=O)[C@H](CC(C)C)NC8=O)cc6)CC5)CC4)cc3)c(c2)CNC(=O)[C@@H]2CCCN2[C@H](C(=O)NC(C)(C)C)[C@H](C)NC(=O)[C@H]([C@@H](C)O)NC(=O)[C@H](CC(=O)O)NC1=O [Compound 481] | 36 nM
CC(C)C[C@@H]1NC(=O)C[C@H](CCCCN)N(C)C(=O)[C@H](CCCCNC(=O)CCOCCOCCOCCOCCOCCOCCOCCC(=O)NCCCC[C@@H]2NC(=O)[C@@H]3CCCN3[C@H](C(=O)NC(C)(C)C)[C@H](C)NC(=O)[C@H]([C@@H](C)O)NC(=O)[C@H](CC(=O)O)NC(=O)[C@H](CC(C)C)NC(=O)C[C@H](CCCCN)N(C)C2=O)NC(=O)[C@@H]2CCCN2[C@H](C(=O)NC(C)(C)C)[C@H](C)NC(=O)[C@H]([C@@H](C)O)NC(=O)[C@H](CC(=O)O)NC1=O [Compound 536] | 16 nM
CC(C)C[C@@H]1NC(=O)c2ccc(-c3ccc(N4CCN(C(=O)c5ccc(-c6cccc(C(=O)N7CCN(c8ccc(-c9ccc%10cc9CNC(=O)[C@@H]9CCCN9[C@H](C(=O)NC(C)(C)C)[C@H](C)NC(=O)[C@H]([C@@H](C)O)NC(=O)[C@H](CC(=O)O)NC(=O)[C@H](CC(C)C)NC%10=O)cc8)CC7)n6)nc5)CC4)cc3)c(c2)CNC(=O)[C@@H]2CCCN2[C@H](C(=O)NC(C)(C)C)[C@H](C)NC(=O)[C@H]([C@@H](C)O)NC(=O)[C@H](CC(=O)O)NC1=O [Compound 466] | 97 nM
CC(C)C[C@@H]1NC(=O)c2ccc(-c3ccc(N4CCN(C(=O)c5ccc(C(=O)N6CCN(c7ccc(-c8ccc9cc8CNC(=O)[C@@H]8CCCN8[C@H](C(=O)NC(C)(C)C)[C@H](C)NC(=O)[C@H]([C@@H](C)O)NC(=O)[C@H](CC(=O)O)NC(=O)[C@H](CC(C)C)NC9=O)cc7)CC6)s5)CC4)cc3)c(c2)CNC(=O)[C@@H]2CCCN2[C@H](C(=O)NC(C)(C)C)[C@H](C)NC(=O)[C@H]([C@@H](C)O)NC(=O)[C@H](CC(=O)O)NC1=O [Compound 470] | 17 nM

same assay, conditions: RPMI8866 cells; read-out: IC50 in the RPMI8866 cell adhesion assay

SMILES | IC50
CC(C)C[C@@H]1NC(=O)C[C@H](CCCCN)N(C)C(=O)[C@H](CCCCN)NC(=O)[C@@H]2CCCN2[C@H](C(=O)NC(C)(C)C)[C@H](C)NC(=O)[C@H]([C@@H](C)O)NC(=O)[C@H](CC(=O)O)NC1=O [Compound 456] | 199 nM
